Measured values from US10414759B2, “Phenylthiazoles and uses thereof” (Purdue Research Foundation, priority 2017, dated 2019).
Values after ≈ are worked out from the molar mass of the structure shown.

Key:
VRE ATCC 700221 = experiment: MIC/MBC clinical isolate panel (Table 3); type: cell-based, Enterococcus faecium; details: Enterococcus, Table 3, VRE ATCC 700221
Procedure: MRSA clinical isolates, and vancomycin-resistant Staphylococcus aureus (VRSA) strain were obtained through the Network of Antimicrobial Resistance in Staphylococcus aureus (NARSA) program. In addition, vancomycin-resistant Enterococcus faecium (VRE) strain was obtained from the ATCC. Bacteria were cultured in cation-adjusted Mueller Hinton broth in a 96-well plate. Compounds, using triplicate samples, were added to the plate and serially diluted. […] Plates were visually inspected and the MIC was categorized as the concentration at which no visible growth of bacteria was observed. The average of triplicate MIC determinations is reported.
The minimum inhibitory concentration (MIC) of tested compounds and control antibiotics were determined using the broth microdilution method in accordance with the recommendations contained in the Clinical and Laboratory Standards Institute guidelines, against methicillin-sensitive (ATCC 6538 and NRS107), methicillin-resistant (MRSA), and vancomycin-resistant (VRSA) Staphylococcus aureus, Staphylococcus epidermidis, Enterococcus faecalis, E. faecium, Listeria monocytogenes, and Streptococcus pneumoniae clinical isolates. A bacterial solution equivalent to 0.5 McFarland standard was prepared and diluted in cation-adjusted Mueller-Hinton broth (CAMHB) to achieve a bacterial concentration of about 5×10^5 CFU/mL and seeded in 96-well plates. Enterococcus faecium was diluted in brain heart infusion broth. Enterococcus faecalis, Streptococcus pneumonia and Listeria monocytogenes were diluted in tryptone soya broth (TSB). Compounds and control drugs were added in the first row of 96-well plates and serially diluted (to achieve a concentration gradient ranging from 128 to 1 μg/mL). Plates were then incubated aerobically at 37° C. for at least 18 hours. The minimum bactericidal concentration (MBC) of the active compounds was tested by plating 5 μL from wells with no growth onto Tryptic soy agar (TSA) plates.

NRS123 (MRSA USA400) = experiment: MIC/MBC clinical isolate panel (Table 3); type: cell-based, S. aureus; details: Staphylococcus aureus, Table 3, NRS123 (MRSA USA400)
Procedure, shortened: (§1)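 Broth dilution in cation-adjusted Mueller-Hinton broth with an inoculum of about 5×10^5 CFU/mL (from a 0.5 McFarland suspension), using triplicate serial dilutions. MIC was the lowest concentration with no visible growth by visual inspection, reported as the mean of triplicates.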

NRS119 (MRSA) = experiment: MIC/MBC clinical isolate panel (Table 3); type: cell-based, S. aureus; details: Staphylococcus aureus, Table 3, NRS119 (MRSA)
Procedure, shortened: as §1

NRS383 (MRSA USA200) = experiment: MIC/MBC clinical isolate panel (Table 3); type: cell-based, S. aureus; details: Staphylococcus aureus, Table 3, NRS383 (MRSA USA200)
Procedure, shortened: as §1

NRS384 (MRSA USA300) = experiment: MIC/MBC clinical isolate panel (Table 3); type: cell-based, S. aureus; details: Staphylococcus aureus, Table 3, NRS384 (MRSA USA300)
Procedure, shortened: as §1

NRS72 (MSSA) = experiment: MIC/MBC clinical isolate panel (Table 3); type: cell-based, S. aureus; details: Staphylococcus aureus, Table 3, NRS72 (MSSA)
Procedure, shortened: as §1

Caco-2 cells = experiment: Caco-2 bidirectional permeability assay
[1] = PBS solubility screen (turbidometric); type: physicochemical; details: aqueous buffer, kinetic from dmso stock
Procedure: The solutions were diluted 100-fold into PBS in a 96-well plate and mixed. The absorbance of the PBS-containing plate was measured prior to addition of the test agents to determine the background absorbance. After 2 h, the presence of precipitate was detected by turbidity (absorbance at 540 nm). […] The solubility limit is reported as the highest experimental concentration with no evidence of turbidity.

With `CCCCc1ccc(-c2nc(C)c(-c3ccnc(NN)n3)s2)cc1` [Compound 17, 2-(4-Butylphenyl)-5-(2-hydrazinopyrimidin-4-yl)-4-methylthiazole] the MBC (VRE ATCC 700221; read-out: MBC) was 8 µg/mL (≈ 23.6 µM), the MIC (VRE ATCC 700221; read-out: MIC) was 2 µg/mL (≈ 5.89 µM) and the MBC (NRS123 (MRSA USA400)) was 2 µg/mL (≈ 5.89 µM). For the same molecule, the MIC (NRS123 (MRSA USA400); read-out: MIC) was 2 µg/mL (≈ 5.89 µM), the MBC (NRS119 (MRSA)) was 2 µg/mL (≈ 5.89 µM) and the MIC (NRS119 (MRSA); read-out: MIC) was 2 µg/mL (≈ 5.89 µM). The MBC (NRS383 (MRSA USA200)) was 2 µg/mL (≈ 5.89 µM), the MIC (NRS383 (MRSA USA200); read-out: MIC) was 2 µg/mL (≈ 5.89 µM) and the MBC (NRS384 (MRSA USA300)) was 2 µg/mL (≈ 5.89 µM). For the same molecule, the MIC (NRS384 (MRSA USA300); read-out: MIC) was 2 µg/mL (≈ 5.89 µM), the MBC (NRS72 (MSSA)) was 8 µg/mL (≈ 23.6 µM) and the MIC (NRS72 (MSSA); read-out: MIC) was 2 µg/mL (≈ 5.89 µM). For the same molecule, the “Mean A→B Papp” value (Caco-2 cells; Caco-2, apical to basolateral) was 1.6 ×10⁻⁶ cm/s, the “Mean B→A Papp” value (Caco-2 cells; Caco-2, basolateral to apical) was 2.8 ×10⁻⁶ cm/s and the Efflux ratio (Caco-2 cells; Papp (B→A)/Papp (A→B)) was 1.8. It also gave a solubility at 2 h [1] of 55 µM (≈ 18.7 µg/mL).
